In ChEMBL document CHEMBL5303573, “Mapping human microbiome drug metabolism by gut bacteria and their genes” (Nature, 2019):

Columns and labels:
[1] = The drug is tested on Bifidobacterium ruminantium strain: fecal isolate for biotransformation. The drug concentrations were measured before and after a 12-h incubation by liquid-chromatography-coupled mass spectrometry (LC–MS); conditions: 2 µM
[2] = The drug is tested on Collinsella aerofaciens strain: ATCC25986 for biotransformation. The drug concentrations were measured before and after a 12-h incubation by liquid-chromatography-coupled mass spectrometry (LC–MS); conditions: 2 µM
[3] = The drug is tested on Alistipes indistinctus strain: DSM22520 for biotransformation. The drug concentrations were measured before and after a 12-h incubation by liquid-chromatography-coupled mass spectrometry (LC–MS); conditions: 2 µM
[4] = The drug is tested on Bacteroides coprophilus strain: DSM18228 for biotransformation. The drug concentrations were measured before and after a 12-h incubation by liquid-chromatography-coupled mass spectrometry (LC–MS); conditions: 2 µM
[5] = The drug is tested on Bacteroides finegoldii strain: DSM17565 for biotransformation. The drug concentrations were measured before and after a 12-h incubation by liquid-chromatography-coupled mass spectrometry (LC–MS); conditions: 2 µM
[6] = The drug is tested on Bacteroides ovatus strain: ATCC8483 for biotransformation. The drug concentrations were measured before and after a 12-h incubation by liquid-chromatography-coupled mass spectrometry (LC–MS); conditions: 2 µM
[7] = The drug is tested on Bacteroides uniformis strain: ATCC8492 for biotransformation. The drug concentrations were measured before and after a 12-h incubation by liquid-chromatography-coupled mass spectrometry (LC–MS); conditions: 2 µM
[8] = The drug is tested on Odoribacter splanchnicus strain: fecal isolate for biotransformation. The drug concentrations were measured before and after a 12-h incubation by liquid-chromatography-coupled mass spectrometry (LC–MS); conditions: 2 µM
[9] = The drug is tested on Parabacteroides merdae strain: ATCC43184 for biotransformation. The drug concentrations were measured before and after a 12-h incubation by liquid-chromatography-coupled mass spectrometry (LC–MS); conditions: 2 µM
[10] = The drug is tested on Anaerotruncus colihominis strain: DSM17241 for biotransformation. The drug concentrations were measured before and after a 12-h incubation by liquid-chromatography-coupled mass spectrometry (LC–MS); conditions: 2 µM
[11] = The drug is tested on Clostridium sporogenes strain: ATCC15579 for biotransformation. The drug concentrations were measured before and after a 12-h incubation by liquid-chromatography-coupled mass spectrometry (LC–MS); conditions: 2 µM
[12] = The drug is tested on Coprococcus comes strain: ATCC27758 for biotransformation. The drug concentrations were measured before and after a 12-h incubation by liquid-chromatography-coupled mass spectrometry (LC–MS); assay type: ADME; parameters: dose 2 uM, timepoint 0 vs 12 hours; conditions: 2 µM
[13] = The drug is tested on Dorea formicigenerans strain: ATCC27755 for biotransformation. The drug concentrations were measured before and after a 12-h incubation by liquid-chromatography-coupled mass spectrometry (LC–MS); conditions: 2 µM
[14] = The drug is tested on Enterococcus faecalis strain: V583 for biotransformation. The drug concentrations were measured before and after a 12-h incubation by liquid-chromatography-coupled mass spectrometry (LC–MS); conditions: 2 µM
[15] = The drug is tested on Ruminococcus torques strain: ATCC27756 for biotransformation. The drug concentrations were measured before and after a 12-h incubation by liquid-chromatography-coupled mass spectrometry (LC–MS); assay type: ADME; parameters: dose 2 uM, timepoint 0 vs 12 hours; conditions: 2 µM
[16] = The drug is tested on Enterobacter cancerogenus strain: ATCC35316 for biotransformation. The drug concentrations were measured before and after a 12-h incubation by liquid-chromatography-coupled mass spectrometry (LC–MS); conditions: 2 µM
[17] = bacteroides thetaiotaomicron, 12 h, 2 µM
Description: The drug is tested on Bacteroides thetaiotaomicron strain: 7330 for biotransformation. The drug concentrations were measured before and after a 12-h incubation by liquid-chromatography-coupled mass spectrometry (LC–MS)

[18] = limosilactobacillus reuteri cf48-3a, 12 h, 2 µM
Description: The drug is tested on Lactobacillus reuteri CF48-3A strain: BEI HM-102 for biotransformation. The drug concentrations were measured before and after a 12-h incubation by liquid-chromatography-coupled mass spectrometry (LC–MS)

[19] = The drug is tested on Bacteroides caccae strain: ATCC43185 for biotransformation. The drug concentrations were measured before and after a 12-h incubation by liquid-chromatography-coupled mass spectrometry (LC–MS); conditions: 2 µM

SMILES	Bacterial Biotransformation [1]	Bacterial Biotransformation [2]	Bacterial Biotransformation [3]	Bacterial Biotransformation [4]	Bacterial Biotransformation [5]	Bacterial Biotransformation [6]	Bacterial Biotransformation [7]	Bacterial Biotransformation [8]	Bacterial Biotransformation [9]	Bacterial Biotransformation [10]	Bacterial Biotransformation [11]	Bacterial Biotransformation [12]	Bacterial Biotransformation [13]	Bacterial Biotransformation [14]	Bacterial Biotransformation [15]	Bacterial Biotransformation [16]	Bacterial Biotransformation [17]	Bacterial Biotransformation [18]	Bacterial Biotransformation [19]
CC1=C(CC(=O)O)c2cc(F)ccc2/C1=C\c1ccc([S+](C)[O-])cc1 (stereo not drawn)	Compound NOT metabolized	Compound NOT metabolized	Compound NOT metabolized	Compound NOT metabolized	Compound NOT metabolized	Compound NOT metabolized	Compound NOT metabolized	Compound NOT metabolized	Compound NOT metabolized	Compound NOT metabolized	Compound NOT metabolized	Compound NOT metabolized	Compound NOT metabolized	Compound NOT metabolized	Compound NOT metabolized	Compound NOT metabolized	Compound NOT metabolized	Compound NOT metabolized	
O=C1C(CC[S+]([O-])c2ccccc2)C(=O)N(c2ccccc2)N1c1ccccc1 (stereo not drawn) [SULFINPYRAZONE]	Compound NOT metabolized	Compound NOT metabolized	Compound NOT metabolized	Compound NOT metabolized	Compound NOT metabolized	Compound NOT metabolized		Compound metabolized	Compound NOT metabolized	Compound NOT metabolized		Compound NOT metabolized	Compound NOT metabolized	Compound NOT metabolized		Compound metabolized	Compound NOT metabolized	Compound NOT metabolized	Compound NOT metabolized
Cc1ccc(S(=O)(=O)NC(=O)NN2CCCCCC2)cc1 [TOLAZAMIDE]	Compound metabolized		Compound NOT metabolized	Compound metabolized		Compound metabolized	Compound metabolized	Compound metabolized		Compound NOT metabolized		Compound NOT metabolized	Compound NOT metabolized	Compound NOT metabolized	Compound NOT metabolized	Compound NOT metabolized	Compound metabolized		
N#Cc1ccc2[nH]cc(CCCCN3CCN(c4ccc5oc(C(N)=O)cc5c4)CC3)c2c1 [VILAZODONE]		Compound NOT metabolized	Compound metabolized	Compound metabolized		Compound metabolized	Compound metabolized	Compound metabolized	Compound metabolized	Compound NOT metabolized	Compound metabolized	Compound NOT metabolized	Compound NOT metabolized	Compound metabolized	Compound NOT metabolized	Compound NOT metabolized	Compound metabolized	Compound NOT metabolized	Compound metabolized
C[C@@H](c1ncncc1F)[C@](O)(Cn1cncn1)c1ccc(F)cc1F [VORICONAZOLE]	Compound NOT metabolized	Compound NOT metabolized	Compound NOT metabolized		Compound NOT metabolized	Compound NOT metabolized	Compound metabolized	Compound metabolized	Compound NOT metabolized	Compound NOT metabolized	Compound NOT metabolized	Compound NOT metabolized	Compound NOT metabolized	Compound NOT metabolized	Compound NOT metabolized	Compound NOT metabolized	Compound metabolized	Compound NOT metabolized	Compound NOT metabolized

The remaining lines, values ahead:

Bacterial Biotransformation [1]	Bacterial Biotransformation [2]	Bacterial Biotransformation [3]	Bacterial Biotransformation [4]	Bacterial Biotransformation [5]	Bacterial Biotransformation [6]	Bacterial Biotransformation [7]	Bacterial Biotransformation [8]	Bacterial Biotransformation [9]	Bacterial Biotransformation [10]	Bacterial Biotransformation [11]	Bacterial Biotransformation [12]	Bacterial Biotransformation [13]	Bacterial Biotransformation [14]	Bacterial Biotransformation [15]	Bacterial Biotransformation [16]	Bacterial Biotransformation [17]	Bacterial Biotransformation [18]	Bacterial Biotransformation [19]	SMILES
Compound NOT metabolized	Compound NOT metabolized	Compound NOT metabolized	Compound NOT metabolized	Compound NOT metabolized	Compound NOT metabolized		Compound NOT metabolized		Compound NOT metabolized	Compound NOT metabolized	Compound NOT metabolized	Compound NOT metabolized	Compound NOT metabolized	Compound NOT metabolized	Compound NOT metabolized		Compound NOT metabolized	Compound NOT metabolized	CCN(CC)CCNC(C(=O)OCCC(C)C)c1ccccc1.Cl.Cl (stereo not drawn)
Compound NOT metabolized	Compound NOT metabolized	Compound NOT metabolized	Compound NOT metabolized	Compound NOT metabolized	Compound NOT metabolized	Compound NOT metabolized	Compound NOT metabolized	Compound NOT metabolized	Compound NOT metabolized		Compound NOT metabolized	Compound NOT metabolized		Compound NOT metabolized	Compound NOT metabolized	Compound NOT metabolized	Compound NOT metabolized	Compound NOT metabolized	OCCOCCN1CCN(C2=Nc3ccccc3Sc3ccccc32)CC1 [QUETIAPINE]
Compound metabolized	Compound NOT metabolized	Compound NOT metabolized	Compound NOT metabolized	Compound NOT metabolized	Compound NOT metabolized	Compound metabolized	Compound NOT metabolized	Compound NOT metabolized	Compound NOT metabolized	Compound NOT metabolized		Compound NOT metabolized	Compound NOT metabolized		Compound NOT metabolized	Compound metabolized	Compound NOT metabolized	Compound NOT metabolized	Nc1nc2ccc(OC(F)(F)F)cc2s1 [RILUZOLE]
Compound NOT metabolized	Compound NOT metabolized	Compound NOT metabolized	Compound metabolized	Compound NOT metabolized					Compound NOT metabolized		Compound NOT metabolized	Compound NOT metabolized	Compound NOT metabolized	Compound NOT metabolized	Compound NOT metabolized			Compound NOT metabolized	CN(C)CCc1c[nH]c2ccc(Cn3cncn3)cc12.O=C(O)c1ccccc1 [RIZATRIPTAN BENZOATE]
Compound NOT metabolized	Compound NOT metabolized	Compound NOT metabolized		Compound NOT metabolized		Compound NOT metabolized			Compound NOT metabolized	Compound NOT metabolized	Compound NOT metabolized	Compound NOT metabolized	Compound NOT metabolized	Compound NOT metabolized	Compound NOT metabolized		Compound NOT metabolized	Compound NOT metabolized	c1ccc2[nH]c(-c3cscn3)nc2c1 [THIABENDAZOLE]
